Results taken from patent US8431702B2, “Therapeutically useful substituted hydropyrido [3,2,1-ij] quinoline compounds” (Allergan, Inc., priority 2008, dated 2013).

Biological target: T1, human S1P3 receptor (Homo sapiens, UniProt Q99500)
T1 construct: expressed in transfected cells
Assay: FLIPR calcium (Fluo-4) assay for activation or block of activation of human S1P3 receptor in T24 cells
Format: cell-based
Details: T24 cells stably expressing the human S1P3 receptor, tested over 0.61 nM to 10,000 nM; for IC50: read-out: S1P3 IC50
Description: The compounds of the invention are assessed for their ability to activate or block activation of the human S1P3 receptor in T24 cells stably expressing the human S1P3 receptor using the method described in paragraph [0067] of United States Patent Application Publication No. 20070232682, which published on Oct. 4, 2007, which is hereby incorporated by reference in its entirety.
Ten thousands cells/well are plated into 384-well poly-D-lysine coated plates one day prior to use. The growth media for the S1P3 receptor expressing cell line is McCoy's 5A medium supplemented with 10% charcoal-treated fetal bovine serum (FBS), 1% antibiotic-antimycotic and 400 μg/ml geneticin. On the day of the experiment, the cells are washed twice with Hank's Balanced Salt Solution supplemented with 20 mM HEPES (HBSS/Hepes buffer). The cells are then dye loaded with 2 μM Fluo-4 diluted in the HBSS/Hepes buffer with 1.25 mM Probenecid and incubated at 37° C. for 40 minutes. Extracellular dye is removed by washing the cell plates four times prior to placing the plates in the FLIPR (Fluorometric Imaging Plate Reader, Molecular Devices). Ligands are diluted in HBSS/Hepes buffer and prepared in 384-well microplates. The positive control, Sphingosine-1-phosphate (S1P), is diluted in HBSS/Hepes buffer with 4 mg/ml fatty acid free bovine serum albumin. The FLIPR transfers 12.5 μl from the ligand microplate to the cell plate and takes fluorescent measurements for 75 seconds, taking readings every second, and then for 2.5 minutes, taking readings every 10 seconds. Compounds are tested over the concentration range of 0.61 nM to 10,000 nM. Data for calcium ion (Ca^+2) responses are obtained in arbitrary fluorescence units and not translated into Ca^+2 concentrations. IC50 values (nM) are determined through a […] analysis using the Levenburg Marquardt algorithm.

T1 sequence (Q99500 whole entry): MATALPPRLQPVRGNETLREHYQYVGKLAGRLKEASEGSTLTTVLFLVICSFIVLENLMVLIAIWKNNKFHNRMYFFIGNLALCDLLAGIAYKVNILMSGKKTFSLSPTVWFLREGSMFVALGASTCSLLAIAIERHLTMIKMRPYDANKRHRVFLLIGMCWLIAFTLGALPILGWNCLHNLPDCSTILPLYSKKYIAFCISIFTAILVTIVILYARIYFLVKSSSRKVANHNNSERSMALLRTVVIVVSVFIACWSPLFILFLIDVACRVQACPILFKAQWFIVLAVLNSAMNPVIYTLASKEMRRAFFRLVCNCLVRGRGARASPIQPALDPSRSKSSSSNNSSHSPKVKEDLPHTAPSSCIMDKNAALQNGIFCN

SMILES | S1P3 % Inhibition | IC50
O=C(Nc1cc2c3c(c1)C(c1ccc(F)cc1)CCN3CCC2c1ccc(F)cc1)OCCF (stereo not drawn) [Compound 067] | 98% | 8 nM
CCOC(=O)Nc1cc2c3c(c1)C(c1cccc(F)c1)CCN3CCC2c1cccc(F)c1 (stereo not drawn) [Compound 093, Ethyl 1,7-bis(3-fluorophenyl)-1,2,3,5,6,7-hexahydropyrido[3,2,1-ij]quinolin-9-ylcarbamate] | 102% | –
CCCOC(=O)Nc1cc2c3c(c1)C(c1cccc(F)c1)CCN3CCC2c1cccc(F)c1 (stereo not drawn) [Compound 094, Propyl 1,7-bis(3-fluorophenyl)-1,2,3,5,6,7-hexahydropyrido[3,2,1-ij]quinolin-9-ylcarbamate] | 101% | –
O=C(Nc1cc2c3c(c1)C(c1ccccc1)CCN3CCC2c1ccccc1)OCCF (stereo not drawn) [Compound 095, 2-fluoroethyl 1,7-diphenyl-1,2,3,5,6,7-hexahydropyrido[3,2,1-ij]quinolin-9-ylcarbamate] | 102% | –
CC(C)(C)NC(=O)Nc1cc2c3c(c1)C(c1ccccc1)CCN3CCC2c1ccccc1 (stereo not drawn) [Compound 148, 1-tert-butyl-3-(1,7-diphenyl-1,2,3,5,6,7-hexahydropyrido[3,2,1-ij]quinolin-9-yl)urea] | 101% | –
CCCCOC(=O)Nc1cc2c3c(c1)C(c1cccc(F)c1)CCN3CCC2c1cccc(F)c1 (stereo not drawn) [Compound 202, Butyl 1,7-bis(3-fluorophenyl)-1,2,3,5,6,7-hexahydropyrido[3,2,1-ij]quinolin-9-ylcarbamate] | 98% | –
O=C(Nc1cc2c3c(c1)C(c1ccccc1)CCN3CCC2c1ccccc1)OCCCCl (stereo not drawn) [Compound 205, 3-chloropropyl 1,7-diphenyl-1,2,3,5,6,7-hexahydropyrido[3,2,1-ij]quinolin-9-ylcarbamate] | 99% | –
O=C(Nc1cc2c3c(c1)C(c1ccccc1)CCN3CCC2c1ccccc1)OCCCCCl (stereo not drawn) [Compound 206, 4-chlorobutyl 1,7-diphenyl-1,2,3,5,6,7-hexahydropyrido[3,2,1-ij]quinolin-9-ylcarbamate] | 100% | –
CCNC(=O)Nc1cc2c3c(c1)[C@](C)(c1ccccc1)CCN3CC[C@@]2(C)c1ccccc1 [Compound 249, 1-((1S,7S)-1,7-dimethyl-1,7-diphenyl-1,2,3,5,6,7-hexahydropyrido[3,2,1-ij]quinolin-9-yl)-3-ethylurea] | 100% | 194 nM
CCCNC(=O)Nc1cc2c3c(c1)[C@](C)(c1ccccc1)CCN3CC[C@@]2(C)c1ccccc1 [Compound 250, 1-((1S,7S)-1,7-dimethyl-1,7-diphenyl-1,2,3,5,6,7-hexahydropyrido[3,2,1-ij]quinolin-9-yl)-3-propylurea] | 100% | 523 nM
CCCNC(=S)Nc1cc2c3c(c1)C(c1ccccc1)CCN3CCC2c1ccccc1 (stereo not drawn) [Compound 255, 1-(1,7-diphenyl-1,2,3,5,6,7-hexahydropyrido[3,2,1-ij]quinolin-9-yl)-3-propylthiourea] | 99% | –
CCCCCCNC(=S)Nc1cc2c3c(c1)C(c1ccccc1)CCN3CCC2c1ccccc1 (stereo not drawn) [Compound 256, 1-(1,7-diphenyl-1,2,3,5,6,7-hexahydropyrido[3,2,1-ij]quinolin-9-yl)-3-hexylthiourea] | 100% | –
O=C(NCc1ccoc1)Nc1cc2c3c(c1)C(c1ccccc1)CCN3CCC2c1ccccc1 (stereo not drawn) [Compound 258, 1-(1,7-diphenyl-1,2,3,5,6,7-hexahydropyrido[3,2,1-ij]quinolin-9-yl)-3-(furan-3-ylmethyl)urea] | 100% | –
COC(=O)Nc1cc2c3c(c1)C(c1ccc(F)cc1)CCN3CCC2c1ccc(F)cc1 (stereo not drawn) [Compound 268] | 98% | 5 nM
COC(=O)Nc1cc2c3c(c1)C(c1ccccc1)CCN3CCC2c1ccccc1 (stereo not drawn) [Compound 272, methyl 1,7-diphenyl-1,2,3,5,6,7-hexahydropyrido[3,2,1-ij]quinolin-9-ylcarbamate] | 102% | –
CCOC(=O)Nc1cc2c3c(c1)C(c1ccccc1)CCN3CCC2c1ccccc1 (stereo not drawn) [Compound 273, Ethyl 1,7-diphenyl-1,2,3,5,6,7-hexahydropyrido[3,2,1-ij]quinolin-9-ylcarbamate] | 101% | –
CC(C)COC(=O)Nc1cc2c3c(c1)C(c1ccccc1)CCN3CCC2c1ccccc1 (stereo not drawn) [Compound 274, Isobutyl 1,7-diphenyl-1,2,3,5,6,7-hexahydropyrido[3,2,1-ij]quinolin-9-ylcarbamate] | 100% | –
CCCOC(=O)Nc1cc2c3c(c1)C(c1ccccc1)CCN3CCC2c1ccccc1 (stereo not drawn) [Compound 275, Propyl 1,7-diphenyl-1,2,3,5,6,7-hexahydropyrido[3,2,1-ij]quinolin-9-ylcarbamate] | 100% | –
CCCCOC(=O)Nc1cc2c3c(c1)C(c1ccccc1)CCN3CCC2c1ccccc1 (stereo not drawn) [Compound 276, Butyl 1,7-diphenyl-1,2,3,5,6,7-hexahydropyrido[3,2,1-ij]quinolin-9-ylcarbamate] | 101% | –
O=C(Nc1cc2c3c(c1)C(c1ccccc1)CCN3CCC2c1ccccc1)Oc1ccccc1 (stereo not drawn) [Compound 277, Phenyl 1,7-diphenyl-1,2,3,5,6,7-hexahydropyrido[3,2,1-ij]quinolin-9-ylcarbamate] | 91% | –
O=C(Nc1cc2c3c(c1)C(c1ccccc1)CCN3CCC2c1ccccc1)OCc1ccccc1 (stereo not drawn) [Compound 278, Benzyl 1,7-diphenyl-1,2,3,5,6,7-hexahydropyrido[3,2,1-ij]quinolin-9-ylcarbamate] | 101% | –
C#CCOC(=O)Nc1cc2c3c(c1)C(c1ccccc1)CCN3CCC2c1ccccc1 (stereo not drawn) [Compound 352, Prop-2-ynyl 1,7-diphenyl-1,2,3,5,6,7-hexahydropyrido[3,2,1-ij]quinolin-9-ylcarbamate] | 97% | –
CCCOC(=O)Nc1cc2c3c(c1)[C@@](C)(c1ccccc1)CCN3CC[C@@]2(C)c1ccccc1 [Compound 355, Propyl (1R,7S)-1,7-dimethyl-1,7-diphenyl-1,2,3,5,6,7-hexahydropyrido[3,2,1-ij]quinolin-9-ylcarbamate] | 98% | 316 nM
CN(C)C(=O)Nc1cc2c3c(c1)C(c1ccccc1)CCN3CCC2c1ccccc1 (stereo not drawn) [Compound 405, 3-(1,7-diphenyl-1,2,3,5,6,7-hexahydropyrido[3,2,1-ij]quinolin-9-yl)-1,1-dimethylurea] | 98% | –
CCCNC(=O)c1cc2c3c(c1)C(c1ccccc1)CCN3CCC2c1ccccc1 (stereo not drawn) [Compound 409, 1,7-diphenyl-N-propyl-1,2,3,5,6,7-hexahydropyrido[3,2,1-ij]quinoline-9-carboxamide] | 89% | 874 nM
CCCCNC(=O)c1cc2c3c(c1)C(c1ccccc1)CCN3CCC2c1ccccc1 (stereo not drawn) [Compound 481, N-butyl-1,7-diphenyl-1,2,3,5,6,7-hexahydropyrido[3,2,1-ij]quinoline-9-carboxamide] | 98% | 210 nM
